From patent US20120177606A1, “LACTIC ACID BACTERIUM FOR INHIBITING PRODUCTION OF GASTRIC ACID AND GASTRIN” (SNOWDEN KABUSHIKIKAISHA, priority 2011, published 2012)
“Also recorded” adds a separate entry of the source.

Test system: gastrin production
Experiment: Side effects of continuous PPI administration (stomach weight ratio, gastrin-positive cells) and alleviation by lived No. 1088
Format: in vivo
Settings: PBS-administered mice, Omeprazole 200 μg subcutaneously every other day for 4 or 8 weeks, vs no PPI
Procedure: Six groups of mice were prepared, each containing five 4-week old GF-Balb/c male mice. Three of the groups were administered orally with a suspension prepared by suspending 1×10^9 CFU of lived No. 1088 in PBS, and the remaining three groups were administered orally with an equal volume of PBS.
When the mice reached 8 weeks of age, a treatment was started for one group of the No. 1088-administered mice and one group of the PBS-administered mice in which the mice were administered subcutaneously every other day with a solution prepared by dissolving 200 μg of the PPI Omeprazole (AstraZeneca Ltd.) in 200 μL of PBS (8 weeks of continuous PPI administration). […]
Upon reaching 16 weeks of age, the mice of each group were killed, and following measurement of the bodyweight, the stomach was extracted from each mouse, the stomach contents (feed and the like) were removed by washing with PBS, and the stomach weight was measured. […]
The stained tissue sections were subjected to observation and image capture using a fluorescence microscope BZ-9000. […]
Using the bodyweights and stomach weights measured upon extraction of the stomachs from the samples of each group, the ratio (%) of stomach weight to bodyweight was calculated for each group. […]

`COc1ccc2[nH]c([S+]([O-])Cc3ncc(C)c(OC)c3C)nc2c1` (centres unmarked) [PPI, Omeprazole] was tested, and the “number of gastrin-producing cells” value was “increased; also recorded: significant increases” and the “stomach weight ratio (stomach weight to bodyweight)” value was “significant increases”.
